# Reference: patent publication US12281122B1, “PI3K inhibitors” (Cogent Biosciences, Inc., priority 2023, dated 2025)
# Columns and labels:
# [1] = system: T47D (PI3Kα-H1047R) cell line; test: HTRF phospho-AKT(S473) cell assay in T47D cells; assay type: cell-based, human
# Procedure, shortened: (§1)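 HTRF read-out of phospho-AKT(S473) in lysates gave IC50 values after 2 h compound exposure at 37° C. Dose series was 12 points at 1:3, topping at 5 μM for T47D and 10 μM for SKBR3. Only SKBR3 received 70 ng/ml PDGF-BB during the last 15 minutes.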
# [2] = system: SKBR3 (PI3Kα-Wild Type) cell line; test: HTRF phospho-AKT(S473) cell assay in SKBR3 cells; assay type: cell-based, human
# Procedure, shortened: as §1
# [3] = Homo sapiens; HTRF phospho-AKT(S473), T47D (PI3Kα-H1047R) cells, 2 hours compound incubation
# [4] = Homo sapiens, SK-BR-3; HTRF phospho-AKT(S473), SKBR3 (PI3Kα-Wild Type) cells, 2 hours compound incubation, PDGF-BB stimulated
# [5] = Homo sapiens; T47D (PI3Kα-H1047R) cells, HTRF phospho-AKT(S473), 2 hours compound incubation
# [6] = Homo sapiens, SK-BR-3; SKBR3 (PI3Kα-Wild Type) cells, HTRF phospho-AKT(S473), 2 hours compound incubation, PDGF-BB stimulated
SMILES,"IC50 [1, 3] [nM]","IC50 [2, 4] [nM]",also measured
"Cc1cc([C@@H](C)Nc2ccc(Cl)nc2C(=O)NS(C)(=O)=O)c2nc(N3CC[C@@H](c4ccnc(C)c4)C3)n(C)c(=O)c2c1 (relative stereo) [Compound 764, 6-chloro-3-(((R)-1-(3,6-dimethyl-2-((R*)-3-(2-methylpyridin-4-yl)pyrrolidin-1-yl)-4-oxo-3,4-dihydroquinazolin-8-yl)ethyl)amino)-N-(methylsulfonyl) picolinamide]",< 250,1000 to 5000,–
"Cc1cc([C@@H](C)Nc2ccc(Cl)nc2C(=O)NS(C)(=O)=O)c2nc(N3CCC[C@@H](c4ccn(C(F)F)n4)C3)n(C)c(=O)c2c1 (relative stereo) [Compound 768, 6-chloro-3-(((R)-1-(2-((R*)-3-(1-(difluoromethyl)-1H-pyrazol-3-yl)piperidin-1-yl)-3,6-dimethyl-4-oxo-3,4-dihydroquinazolin-8-yl)ethyl)amino)-N-(methylsulfonyl) picolinamide]",250 to 500,≥ 5000,–
"Cc1cc([C@@H](C)Nc2ccc(Cl)nc2C(=O)NS(C)(=O)=O)c2nc(N3CC[C@H](c4ccnc(C)c4)C3)n(C)c(=O)c2c1 (relative stereo) [Compound 769, 6-chloro-3-(((R)-1-(3,6-dimethyl-2-((R*)-3-(2-methylpyridin-4-yl)pyrrolidin-1-yl)-4-oxo-3,4-dihydroquinazolin-8-yl)ethyl)amino)-N-(methylsulfonyl) picolinamide]",< 250,1000 to 5000,–
"Cc1cc([C@@H](C)Nc2ccc(Cl)nc2C(=O)NS(C)(=O)=O)c2nc(N3CCC[C@H](c4ccn(C(F)F)n4)C3)n(C)c(=O)c2c1 (relative stereo) [Compound 770, 6-chloro-3-(((R)-1-(2-((R*)-3-(1-(difluoromethyl)-1H-pyrazol-3-yl)piperidin-1-yl)-3,6-dimethyl-4-oxo-3,4-dihydroquinazolin-8-yl)ethyl)amino)-N-(methylsulfonyl) picolinamide]",250 to 500,≥ 5000,–
"Cc1cc([C@@H](C)Nc2ccc(Cl)nc2C(=O)NS(C)(=O)=O)c2nc(N3CCC[C@@H](c4ccnn4C(F)F)C3)n(C)c(=O)c2c1 (relative stereo) [Compound 771, 6-chloro-3-(((R)-1-(2-((R*)-3-(1-(difluoromethyl)-1H-pyrazol-5-yl)piperidin-1-yl)-3,6-dimethyl-4-oxo-3,4-dihydroquinazolin-8-yl)ethyl)amino)-N-(methylsulfonyl) picolinamide]",250 to 500,≥ 5000,–
"Cc1cc([C@@H](C)Nc2ccc(Cl)nc2C(=O)NS(C)(=O)=O)c2nc(-c3ccc([C@@H]4CN(C)CCO4)cc3)n(C)c(=O)c2c1 (relative stereo) [Compound 803, 6-chloro-3-(((R)-1-(3,6-dimethyl-2-(4-((R*)-4-methylmorpholin-2-yl)phenyl)-4-oxo-3,4-dihydroquinazolin-8-yl)ethyl)amino)-N-(methylsulfonyl) picolinamide]",< 250,≥ 5000,–
"Cc1cc([C@@H](C)Nc2ccc(Cl)nc2C(=O)NS(C)(=O)=O)c2nc(N3C[C@H]4C[C@@H](c5cc[nH]n5)[C@@H]3C4)n(C)c(=O)c2c1 (single isomer, unassigned) [Compound 346, 3-(((R)-1-(2-((1S,4S,6R*)-6-(1H-pyrazol-3-yl)-2-azabicyclo[2.2.1]heptan-2-yl)-3,6-dimethyl-4-oxo-3,4-dihydroquinazolin-8-yl)ethyl)amino)-6-chloro-N-(methylsulfonyl) picolinamide]",–,–,"IC50 [1, 5]: 250 to 500 nM; IC50 [2, 6]: ≥ 5000 nM"
"Cc1cc([C@@H](C)Nc2ccc(Cl)nc2C(=O)NS(C)(=O)=O)c2nc(N3C[C@@H]4CC(n5cc(C)cn5)C[C@H]4C3)n(C)c(=O)c2c1 (single isomer, unassigned) [Compound 367, 6-chloro-3-(((R)-1-(3,6-dimethyl-2-((3aR*,6aR*)-5-(4-methyl-1H-pyrazol-1-yl)hexahydrocyclopenta [c]pyrrol-2(1H)-yl)-4-oxo-3,4-dihydroquinazolin-8-yl)ethyl)amino)-N-(methylsulfonyl) picolinamide]",–,–,"IC50 [1, 5]: < 250 nM; IC50 [2, 6]: ≥ 5000 nM"
"Cc1cc([C@@H](C)Nc2ccc(Cl)nc2C(=O)NS(C)(=O)=O)c2nc(N3C[C@H]4CC(c5ccn(C)n5)C[C@@H]4C3)n(C)c(=O)c2c1 (single isomer, unassigned) [Compound 425, 6-chloro-3-(((R)-1-(3,6-dimethyl-2-((3aS*,6aS*)-5-(1-methyl-1H-pyrazol-3-yl)hexahydrocyclopenta [c]pyrrol-2(1H)-yl)-4-oxo-3,4-dihydroquinazolin-8-yl)ethyl)amino)-N-(methylsulfonyl) picolinamide]",–,–,"IC50 [1, 5]: < 250 nM; IC50 [2, 6]: ≥ 5000 nM"
"Cc1cc([C@@H](C)Nc2ccc(Cl)nc2C(=O)NS(C)(=O)=O)c2nc(N3C[C@@H]4CC(c5ccn(C)n5)C[C@H]4C3)n(C)c(=O)c2c1 (single isomer, unassigned) [Compound 426, 6-chloro-3-(((R)-1-(3,6-dimethyl-2-((3aR*,6aR*)-5-(1-methyl-1H-pyrazol-3-yl)hexahydrocyclopenta [c]pyrrol-2(1H)-yl)-4-oxo-3,4-dihydroquinazolin-8-yl)ethyl)amino)-N-(methylsulfonyl) picolinamide]",–,–,"IC50 [1, 5]: 250 to 500 nM; IC50 [2, 6]: ≥ 5000 nM"
"Cc1cc([C@@H](C)Nc2ccc(Cl)nc2C(=O)NS(C)(=O)=O)c2nc(N3CC[C@H](c4cnc(C)c(C#N)c4)C3)n(C)c(=O)c2c1 (single isomer, unassigned) [Compound 655, 6-chloro-3-(((R)-1-(2-((R*)-3-(5-cyano-6-methylpyridin-3-yl)pyrrolidin-1-yl)-3,6-dimethyl-4-oxo-3,4-dihydroquinazolin-8-yl)ethyl)amino)-N-(methylsulfonyl) picolinamide]",1000 to 5000,≥ 5000,–
"Cc1cc([C@@H](C)Nc2ccc(Cl)nc2C(=O)NS(C)(=O)=O)c2nc(N3C[C@H]4CC(n5cc(C)cn5)C[C@@H]4C3)n(C)c(=O)c2c1 (single isomer, unassigned) [Compound 676, 6-chloro-3-(((R)-1-(3,6-dimethyl-2-((3aS*,6aS*)-5-(4-methyl-1H-pyrazol-1-yl)hexahydrocyclopenta [c]pyrrol-2(1H)-yl)-4-oxo-3,4-dihydroquinazolin-8-yl)ethyl)amino)-N-(methylsulfonyl) picolinamide]",250 to 500,≥ 5000,–
"Cc1cc([C@@H](C)Nc2ccc(Cl)nc2C(=O)NS(C)(=O)=O)c2nc(N3CCCC(c4ncc(Cl)cn4)C3)n(C)c(=O)c2c1 (stereo in doubt) [Compound 587, 6-chloro-3-(((R)-1-(2-((R*)-3-(5-chloropyrimidin-2-yl)piperidin-1-yl)-3,6-dimethyl-4-oxo-3,4-dihydroquinazolin-8-yl)ethyl)amino)-N-(methylsulfonyl) picolinamide]",–,–,"IC50 ([1]; HTRF phospho-AKT(S473), T47D (PI3Kα-H1047R) cells, 2 hours compound incubation): 250 to 500 nM; IC50 ([2]; HTRF phospho-AKT(S473), SKBR3 (PI3Kα-Wild Type) cells, 2 hours compound incubation, PDGF-BB stimulated): ≥ 5000 nM"
"Cc1cc([C@@H](C)Nc2ccc(Cl)nc2C(=O)NS(C)(=O)=O)c2nc(N3CC4C[C@H]3CN4c3ccc(N(C)C)cc3)n(C)c(=O)c2c1 (stereo in doubt) [Compound 743, 6-chloro-3-(((R)-1-(2-((1S,4R)-5-(4-(dimethylamino)phenyl)-2,5-diazabicyclo [2.2.1]heptan-2-yl)-3,6-dimethyl-4-oxo-3,4-dihydroquinazolin-8-yl)ethyl)amino)-N-(methylsulfonyl) picolinamide]",1000 to 5000,≥ 5000,–
